This is an account of results in patent US11590129B2, “Combination therapy with an antitumor alkaloid” (PHARMA MAR, S.A., priority 2010, dated 2023).

Like-named read-outs stand apart in the source and are kept apart here.

Test [1] deals with U87-MG human glioblastoma cell line. As to the kind of experiment: cells.
The test system of test [2] is A549 human lung carcinoma cell line. As to the kind of experiment: MTT cytotoxicity assay in A549 cells: IC50 of single agents and combinations with PM01183. The test is classed as cell-based. To be noted: Homo sapiens. Summed up:
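A549 cells seeded at 5,000 per well, grown 24 h drug-free, then exposed to vehicle or compounds for 72 h, either singly or combined with PM01183. Combination responses plotted against dose ratio relative to an additivity line.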

Test [3] has as its system IGROV-1 human ovarian adenocarcinoma cell line. The test can be described thus: cells.
Test [4] relates to HepG2 human hepatocellular liver carcinoma cell line. As to the kind of experiment: MTT cytotoxicity assay in HepG2 cells: IC50 of single agents and combinations with PM01183. It counts as cell-based. To be noted: Homo sapiens.
Test [5] relates to RAMOS human lymphoma cell line. The test can be described thus: cells. As for the experimental part:
(§1) Briefly, cells were seeded in 96 well microtiter plates at a density of 50000 cells per well in 150 μL of culture medium and incubated for 4-6 hours in drug-free medium before treatment with vehicle alone or test compounds for 72 hours.
(§2) After incubation, the cytotoxic effect was evaluated using a MTT reduction assay. 50 μL of MTT solution (1 mg/mL) were added to the wells and incubated for 15-17 hours at 37° C. until formazan crystals were formed. After gently removing the culture medium, DMSO was added to dissolve the insoluble purple formazan product into a colored solution. […] Results were expressed as percentage of control cell growth. The EC50 values (half-maximal effective concentration) used for the combination studies were calculated using Prism v5.02 software (GraphPad). EC50 was expressed as molar concentration and represented the mean of at least three independent assays.
(§3) Using these starting concentrations, constant serial dilutions were performed to generate the concentration-response curves for each set of drugs, alone and in combination.
(§4) Based on this equation, the term “combination index” (CI) is used as a quantitative measure of the degree of drug interactions. […] CI values were calculated by solving the equation for different values of fa (i.e., for different degrees of cell groth inhibition).
(§5) Data were analyzed using CalcuSyn software (Biosoft, Cambridge, UK). For statistical analysis and graphs Prism software (GraphPad, San Diego, USA) was used. All the results represent the mean of at least three independent experiments.
(§6) Additional serial dilutions were prepared in serum-free culture medium to achieve a final 4× concentration. Aliquots of 50 μL of each diluted compound were added per well.
(§7) In the second set of assays, concentration-response curves for the agents tested, both alone and in two-drug combination, were performed.

Test [6] concerns U-937 human lymphoma cell line. The test can be described thus: cells. The method, then: as §1, §2, §3, §4, §5, §6, §7
For test [7], the system named is A673 human rhabdomyosarcoma cell line. The test can be described thus: cells. The method, boiled down:
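A673 cells seeded at 5,000 per well, grown 24 h drug-free, then exposed to compounds for 72 h. Viability by MTT reduction (8 h, 37 °C), formazan dissolved in DMSO. Results expressed as percentage of control cell growth.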

The test system of test [8] is SK-MEL-2 human melanoma cell line. The test can be described thus: cells. The method, boiled down: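 SK-MEL-2 melanoma cells (5,000/well) grown 24 h drug-free, then exposed 72 h to vehicle or test compounds. Viability by MTT reduction (8 h, 37 °C), formazan dissolved in DMSO; results expressed as percentage of control cell growth.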
Test [9] relates to MOLT-4 human leukemia cell line. The test can be described thus: cells. As for the experimental part: as §6
(§8) JURKAT and MOLT-4 were the human leukemia cell lines selected for this assay, which were obtained from the American Type Culture Collection (ATCC).
as §1, §2
(§9) b. In a second set of experiments, concentration-response curves for the agents tested, both alone and in two-drug combination, were performed, using the same methodology described in the previous paragraph.
as §3, §4, §5

Test [10] relates to JURKAT human leukemia cell line. The test can be described thus: cells. The method, then: as §6, §8, §1, §2, §9, §3, §4, §5
Test [11] concerns PANC-1 human pancreatic carcinoma cell line. As to the kind of experiment: cells. Summed up: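 Cells seeded at 5,000/well, left 24 h drug-free, then exposed to test compounds for 72 h. Viability read by MTT reduction (MTT added for 8 h at 37° C, formazan dissolved in DMSO).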
Test [12] concerns MDA-MB-231 human breast adenocarcinoma cell line. As to the kind of experiment: cells.
The test system of test [13] is RXF-393 human kidney carcinoma cell line. The test can be described thus: cells.
Test [14] relates to HGC-27 human gastric carcinoma cell line. As to the kind of experiment: cells.
In test [15] the test system is PC-3 human prostate cancer cell line. The test can be described thus: cells. The method, boiled down: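 Cells seeded at 5,000/well, grown 24 h drug-free, then exposed to vehicle or test compounds for 72 h. Viability by MTT reduction (8 h, 37 °C), formazan dissolved in DMSO. Values given as percentage of control cell growth.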
The test system of test [16] is HT-29 human colon adenocarcinoma cell line. The test can be described thus: cells. The method, boiled down: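 HT-29 cells (5,000/well) were attached for 24 h, then exposed to vehicle or compounds for 72 h. Viability was read by MTT reduction, with 8 h MTT at 37° C and formazan dissolved in DMSO. Values are % of control cell growth.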
The mark [17] stands for this setting: U87-MG, 72 hours drug exposure, MTT.
The mark [18] stands for this setting: IGROV-1, 72 hours drug exposure, MTT.
Where [19] appears, read: A673, 72 hours drug exposure, MTT.
The mark [20] stands for this setting: HT-29, 72 hours drug exposure, MTT.
Setting [21] is: RXF-393, 72 hours drug exposure, MTT.
Where [22] appears, read: HGC-27, 72 hours drug exposure, MTT.
Where [23] appears, read: A549, 72 hours drug exposure, MTT, read-out: IC50.
Where [24] appears, read: HepG2, 72 hours drug exposure, MTT, read-out: IC50.

On to `COc1cc2c(cc1O)CCN[C@]21CS[C@@H]2c3c(OC(C)=O)c(C)c4c(c3[C@H](COC1=O)N1[C@@H]2[C@H]2c3c(cc(C)c(OC)c3O)C[C@@H]([C@@H]1O)N2C)OCO4` [ET-743, trabectedin], for which the IC50 came to 5 nM in test [1] (Homo sapiens, U-87 MG, 72 h); 22.5 nM in test [2] (A549, 72 h); 6.45 nM in test [3] (Homo sapiens, IGROV-1, 72 h); 7.21 nM in test [4] (HepG2, 72 h); 1.9 nM in [7] (Homo sapiens, A673, 72 h); 2 nM in test [8] (Homo sapiens, SK-MEL-2, 72 h). Further, the IC50 in [11] (Homo sapiens, PANC-1, 72 h) was determined as 21 nM; in [12] (Homo sapiens, MDA-MB-231, 72 h), 2 nM; in test [13] (Homo sapiens, RXF 393, 72 h), 9.6 nM; in test [14] (Homo sapiens, HGC-27, 72 h), 5.8 nM; in [15] (Homo sapiens, PC-3, 72 h) it was 8 nM. The EC50 in test [5] (Homo sapiens, Ramos, 72 h) was 9.55 nM; in test [6] (Homo sapiens, U-937, 72 h) it was 8.62 nM; in test [9] (Homo sapiens, MOLT-4, 72 h), 3.84 nM; in test [10] (Homo sapiens, Jurkat, 72 h), 6.96 nM.

As for aplidine, the IC50 is 3.8 nM in [1] (setting [17]); 1.5 nM in test [3] (setting [18]); 2.16 nM in test [7] (setting [19]); 1.76 nM in test [16] (setting [20]); 1.5 nM in test [13] (setting [21]); 9 nM in test [14] (setting [22]). Besides, the EC50 in [9] (MOLT-4, 72 hours exposure, MTT) came to 1.27 nM; in test [10] (JURKAT, 72 hours exposure, MTT) it was 13.8 nM.

For `COc1c(C)cc2c(c1O)[C@@H]1[C@@H]3Cc4c(OC(C)=O)c(C)c5c(c4[C@H](CNC(=O)/C=C/c4cccc(C(F)(F)F)c4)N3[C@@H](O)[C@H](C2)N1C)OCO5` [PM00104], the IC50 in [2] (setting [23]) amounted to 7 nM; in test [3] (Homo sapiens, IGROV-1, 72 h) it was 3.3 nM; in test [4] (setting [24]) it was 3 nM; in test [7] (Homo sapiens, A673, 72 h) it was 3 nM; in test [8] (Homo sapiens, SK-MEL-2, 72 h) it was 2 nM; in test [11] (Homo sapiens, PANC-1, 72 h), 7.89 nM. For the same molecule, the half-maximal inhibitory concentration (IC50) in [12] (Homo sapiens, MDA-MB-231, 72 h) was 1 nM; in test [13] (Homo sapiens, RXF 393, 72 h) it was 5.4 nM; in test [14] (Homo sapiens, HGC-27, 72 h), 3.2 nM; in [15] (Homo sapiens, PC-3, 72 h), 7.1 nM. Also, the EC50 in [5] (Homo sapiens, Ramos, 72 h) was 4.35 nM; in test [6] (Homo sapiens, U-937, 72 h), 4.5 nM; in test [9] (Homo sapiens, MOLT-4, 72 h), 1.55 nM; in [10] (Homo sapiens, Jurkat, 72 h) it was 4.83 nM.

For `CN(Cc1cnc2nc(N)nc(N)c2n1)c1ccc(C(=O)N[C@@H](CCC(=O)O)C(=O)O)cc1` [Methotrexate, methotrexate], the IC50 in test [1] (Homo sapiens, U-87 MG, 72 h) amounted to 50000 nM; in [3] (Homo sapiens, IGROV-1, 72 h) it was 100000 nM; in [4] (HepG2, 72 h), 39.6 nM; in test [8] (Homo sapiens, SK-MEL-2, 72 h), 100000 nM; in test [11] (Homo sapiens, PANC-1, 72 h) it was 10000 nM; in test [12] (Homo sapiens, MDA-MB-231, 72 h), 5940 nM. Besides, the IC50 stood at 175000 nM in test [13] (Homo sapiens, RXF 393, 72 h); 33 nM in test [14] (Homo sapiens, HGC-27, 72 h); 120000 nM in test [15] (Homo sapiens, PC-3, 72 h). Moreover, the EC50 in [5] (Homo sapiens, Ramos, 72 h) was 5020 nM; in test [6] (Homo sapiens, U-937, 72 h), 26.3 nM; in test [9] (Homo sapiens, MOLT-4, 72 h), 43.9 nM; in test [10] (Homo sapiens, Jurkat, 72 h) it was 145 nM.

With `C/C=C1\NC(=O)[C@H](Cc2ccccc2)NC(=O)[C@@H](C(C)C)NC(=O)[C@@H]([C@@H](C)CC)NC(=O)[C@H](NC(=O)[C@H](NC(=O)[C@H](CCCN)NC(=O)[C@H]2CCCN2C(=O)[C@H](NC(=O)[C@@H](NC(=O)[C@@H](NC(=O)[C@H](NC(=O)CC[C@@H](C)CC)C(C)C)[C@@H](C)O)C(C)C)C(C)C)[C@@H](C)CC)[C@@H](C)OC(=O)[C@H](C(C)C)NC1=O` [PM02734, (4S)-MeHex-D-Val-L-Thr-L-Val-D-Val-D-Pro-L-Orn-D-allo-Ile-cyclo(D-allo-Thr-D-allo-Ile-D-Val-L-Phe-Z-Dhb-L-Val)], the IC50 in [1] (setting [17]) was 4080 nM; in test [3] (setting [18]), 333 nM; in test [7] (setting [19]), 3600 nM; in [8] (SK-MEL-2, 72 hours drug exposure, MTT), 1760 nM; in test [16] (setting [20]) it was 214 nM; in test [11] (PANC-1, 72 hours drug exposure, MTT), 9000 nM. In addition, the IC50 is 2800 nM in test [12] (72 h), 5000 nM in [13] (setting [21]), 950 nM in test [14] (setting [22]) and 540 nM in [15] (72 h). Also, the EC50 in test [5] (RAMOS, 72 hours exposure, MTT) came to 13600 nM; in test [6] (U-937 tumor cell line, single agent) it was 6850 nM; in test [9] (MOLT-4, 72 hours exposure, MTT) it was 14400 nM; in [10] (JURKAT, 72 hours exposure, MTT) it was 5500 nM.

On to `COc1cccc2c1C(=O)c1c(O)c3c(c(O)c1C2=O)C[C@@](O)(C(C)=O)C[C@@H]3O[C@H]1C[C@H](N)[C@H](O)[C@H](C)O1` [Daunorubicin, daunorubicin], for which the IC50 amounted to 284 nM in test [1] (Homo sapiens, U-87 MG, 72 h); 355 nM in test [2] (setting [23]); 355 nM in test [3] (Homo sapiens, IGROV-1, 72 h); 300 nM in test [4] (setting [24]); 520 nM in [7] (Homo sapiens, A673, 72 h); 177 nM in test [8] (Homo sapiens, SK-MEL-2, 72 h). Also, the IC50 in [16] (Homo sapiens, HT-29, 72 h) worked out at 532 nM; in test [11] (Homo sapiens, PANC-1, 72 h), 869 nM; in test [12] (Homo sapiens, MDA-MB-231, 72 h), 370 nM; in [13] (Homo sapiens, RXF 393, 72 h), 620 nM; in test [14] (Homo sapiens, HGC-27, 72 h) it was 372 nM; in test [15] (Homo sapiens, PC-3, 72 h) it was 1150 nM. Besides, the EC50 in [5] (Homo sapiens, Ramos, 72 h) is 315 nM; in test [6] (Homo sapiens, U-937, 72 h), 304 nM; in [10] (Homo sapiens, Jurkat, 72 h), 792 nM.
